This passage reports IC50 results from patent publication US12570655B2, “Cysteine covalent modifiers of AKT1 and uses thereof” (Terremoto Biosciences, Inc., priority 2023, dated 2026).

Like-named read-outs stand apart in the source and are kept apart here.

Common to all, as to assay type: cell-based
For one experiment, the target named is T1, AKT1 E17K (Homo sapiens, UniProt P31749, E17K).
T1 construct: expressed in transfected cells; host or cells: HEK293
The experiment is described as follows: Live cell AKT1 E17K target engagement by NanoBRET competitive probe displacement. The note with it: HEK293 cells transfected with kinase-NanoLuciferase fusion, 2 h at 37° C. In a few lines:
(§1)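 Luminescence ratio 600/460 nm served as readout after HEK293 cells bearing transiently expressed kinase–NanoLuciferase fusions were exposed 2 h at 37 °C to test compound alongside an ATP-competitive fluorescent tracer near EC50. Extracellular signal was quenched by a luciferase inhibitor.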
For orientation: In BRET a luciferase serves as donor, and the signal depends on an acceptor being close.

Experiment [1] has as its system LAPC4 prostate cancer cells. The experiment is described as follows: Antiproliferative effects in LAPC4 cells (CellTiter Glo). The note with it: LAPC4 cells (AKT1 E17K allele), read-out: LAPC4 proliferation IC50. In a few lines: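 IC50 values reflect 72 h compound treatment of cells plated at 1,000 per well, with CellTiter Glo luminescence as the viability read-out.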
For orientation: ATP-based viability assays read luminescence as a measure of living cells.

The target of a further experiment is T2, AKT2 (Homo sapiens, UniProt P31751).
T2 construct: expressed in transfected cells; host or cells: HEK293
The experiment is described as follows: Live cell AKT2 target engagement by NanoBRET competitive probe displacement. The note with it: HEK293 cells transfected with kinase-NanoLuciferase fusion, 2 h at 37° C. An outline of the steps: as §1

For another experiment, the target named is T3, AKT1 WT (Homo sapiens, UniProt P31749).
T3 construct: expressed in transfected cells; host or cells: HEK293
The experiment is described as follows: Live cell AKT1 WT target engagement by NanoBRET competitive probe displacement. Particulars: HEK293 cells transfected with kinase-NanoLuciferase fusion, 2 h at 37° C. In a few lines:
as §1

T2 sequence (P31751 whole entry): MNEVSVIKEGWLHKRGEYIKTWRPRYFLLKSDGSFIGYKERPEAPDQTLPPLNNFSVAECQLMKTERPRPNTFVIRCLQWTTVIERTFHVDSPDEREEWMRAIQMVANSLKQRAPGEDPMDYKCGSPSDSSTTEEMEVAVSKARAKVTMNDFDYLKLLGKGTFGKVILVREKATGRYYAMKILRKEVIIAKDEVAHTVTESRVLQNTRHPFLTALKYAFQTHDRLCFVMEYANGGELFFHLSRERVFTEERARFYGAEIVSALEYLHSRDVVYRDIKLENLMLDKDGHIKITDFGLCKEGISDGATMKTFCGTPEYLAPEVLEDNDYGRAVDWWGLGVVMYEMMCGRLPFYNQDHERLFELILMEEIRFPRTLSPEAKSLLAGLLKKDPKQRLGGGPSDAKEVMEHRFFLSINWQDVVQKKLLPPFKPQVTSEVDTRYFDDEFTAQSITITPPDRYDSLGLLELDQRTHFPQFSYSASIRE
T1 sequence (P31749 whole entry E17K): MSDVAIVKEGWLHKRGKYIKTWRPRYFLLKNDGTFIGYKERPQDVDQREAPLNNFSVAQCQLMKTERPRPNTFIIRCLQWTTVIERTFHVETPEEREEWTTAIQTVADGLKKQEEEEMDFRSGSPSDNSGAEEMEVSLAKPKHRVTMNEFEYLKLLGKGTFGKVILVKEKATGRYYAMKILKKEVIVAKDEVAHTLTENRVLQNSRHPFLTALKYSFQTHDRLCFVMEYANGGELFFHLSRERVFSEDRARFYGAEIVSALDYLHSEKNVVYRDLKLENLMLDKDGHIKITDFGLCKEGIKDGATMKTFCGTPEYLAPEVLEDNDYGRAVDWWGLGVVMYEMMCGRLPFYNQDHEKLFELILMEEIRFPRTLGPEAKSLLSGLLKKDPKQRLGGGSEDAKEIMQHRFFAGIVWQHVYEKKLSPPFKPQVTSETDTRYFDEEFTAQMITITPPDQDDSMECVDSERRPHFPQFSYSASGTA
T3 sequence (P31749 whole entry): as the sequence (P31749 whole entry E17K) above, with K17E counted along it

With `C=CC(=O)N1CCC(N[C@H]2CCc3cc(-n4c(-c5cccnc5N)nc5ccc(-n6cccn6)nc54)ccc32)C[C@@H]1C` (single isomer, unassigned) [Example 66, 1-((2S,4*)-4-(((S)-5-(2-(2-aminopyridin-3-yl)-5-(1H-pyrazol-1-yl)-3H-imidazo[4,5-b]pyridin-3-yl)-2,3-dihydro-1H-inden-1-yl)amino)-2-methylpiperidin-1-yl)prop-2-en-1-one], the IC50 amounted to 0.0296 µM at AKT1 E17K, 0.068 µM in experiment [1] (72 h), 0.0515 µM on AKT2 and 0.0121 µM on AKT1 WT.

Regarding `C=CC(=O)N1C[C@@H]2C[C@H]1CC2N[C@H]1CCc2cc(-n3c(-c4cccnc4N)nc4ccc(-n5cccn5)nc43)ccc21` (single isomer, unassigned) [Example 135, 1-[(1S,4S,5*)-5-{[(1S)-5-[2-(2-aminopyridin-3-yl)-5-(pyrazol-1-yl)imidazo[4,5-b]pyridin-3-yl]-2,3-dihydro-1H-inden-1-yl]amino}-2-azabicyclo[2.2.1]heptan-2-yl]prop-2-en-1-one], the IC50 was 0.152 µM on AKT1 E17K; 0.302 µM in experiment [1] (Homo sapiens, LAPC4, 72 h); 0.478 µM on AKT2; 0.0222 µM on AKT1 WT.

In the case of `C#Cc1cccc(-c2ccc3nc(-c4cccnc4N)n(-c4ccc5c(c4)CC[C@@H]5NC4CCN(C(=O)C=C)CC4)c3n2)c1` [Example 178, 1-(4-{[(1S)-5-[2-(2-aminopyridin-3-yl)-5-(3-ethynylphenyl)imidazo[4,5-b]pyridin-3-yl]-2,3-dihydro-1H-inden-1-yl]amino}piperidin-1-yl)prop-2-en-1-one], the IC50 on AKT1 E17K is 0.0181 µM; in experiment [1] (Homo sapiens, LAPC4, 72 h), 0.071 µM; on AKT2, 0.0267 µM; on AKT1 WT, 0.0332 µM.

Consider `C=CC(=O)N1CCC(N[C@H]2CCc3cc(-n4c(-c5cccnc5N)nc5ccc(-n6cccn6)nc54)ccc32)C(F)C1` (single isomer, unassigned) [Example 106, 1-((3*,4*)-4-(((S)-5-(2-(2-aminopyridin-3-yl)-5-(1H-pyrazol-1-yl)-3H-imidazo[4,5-b]pyridin-3-yl)-2,3-dihydro-1H-inden-1-yl)amino)-3-fluoropiperidin-1-yl)prop-2-en-1-one], for which the IC50 at AKT1 E17K is 0.0203 µM; in experiment [1] (72 h) it was 0.093 µM; at AKT2, 0.12 µM; at AKT1 WT it was 0.00385 µM.

In the case of `C=CC(=O)N1CCC(N[C@H]2CCc3cc(-n4c(-c5cccnc5N)nc5ccc(-n6cccn6)nc54)ccc32)C(F)C1` (single isomer, unassigned) [Example 104, 1-((3*,4*)-4-(((S)-5-(2-(2-aminopyridin-3-yl)-5-(1H-pyrazol-1-yl)-3H-imidazo[4,5-b]pyridin-3-yl)-2,3-dihydro-1H-inden-1-yl)amino)-3-fluoropiperidin-1-yl)prop-2-en-1-one], the IC50 at AKT1 E17K was 0.0206 µM; in experiment [1] (72 h) it was 0.12 µM; on AKT2, 0.0927 µM; at AKT1 WT, 0.00452 µM.

For `CC#CC(=O)N1CCC(N[C@H]2CCc3cc(-n4c(-c5cccnc5N)nc5ccc(-n6cccn6)nc54)ccc32)CC1` [Example 69, 1-(4-{[(1S)-5-[2-(2-aminopyridin-3-yl)-5-(pyrazol-1-yl)imidazo[4,5-b]pyridin-3-yl]-2,3-dihydro-1H-inden-1-yl]amino}piperidin-1-yl)but-2-yn-1-one], the IC50 amounted to 0.0577 µM on AKT1 E17K; 0.358 µM in experiment [1] (Homo sapiens, LAPC4, 72 h); 0.226 µM at AKT2; 0.0253 µM on AKT1 WT.

Consider `C=CC(=O)N1CCC(N[C@H]2CCc3cc(-n4c(-c5cccnc5N)nc5ccc(-n6cccn6)nc54)ccc32)C(O)C1` (single isomer, unassigned) [Example 140, 1-[(3*,4*)-4-{[(1S)-5-[2-(2-aminopyridin-3-yl)-5-(pyrazol-1-yl)imidazo[4,5-b]pyridin-3-yl]-2,3-dihydro-1H-inden-1-yl]amino}-3-hydroxypiperidin-1-yl]prop-2-en-1-one], for which the IC50 was more than 1 µM on AKT1 E17K, 1.49 µM in experiment [1] (72 h), 3.58 µM on AKT2 and 0.37 µM on AKT1 WT.

Regarding `Nc1ncccc1-c1nc2ccc(-n3cccn3)nc2n1-c1ccc2c(c1)CC[C@@H]2NC(=O)c1ccccc1NC(=O)C1=CCCC1` [Example 37, (S)-N-(5-(2-(2-aminopyridin-3-yl)-5-(1H-pyrazol-1-yl)-3H-imidazo[4,5-b]pyridin-3-yl)-2,3-dihydro-1H-inden-1-yl)-2-(cyclopent-1-ene-1-carboxamido)benzamide], the IC50 on AKT1 E17K stood at 0.246 µM; in experiment [1] (Homo sapiens, LAPC4, 72 h), 0.581 µM; at AKT2, 0.738 µM; at AKT1 WT, 0.093 µM.

Consider `C=CC(=O)NCc1ccccc1C(=O)N[C@H]1CCc2cc(-n3c(-c4cccnc4N)nc4ccc(-n5nccn5)nc43)ccc21` [Example 263, (S)-N-[(1S)-5-[2-(2-aminopyridin-3-yl)-5-(1,2,3-triazol-2-yl)imidazo[4,5-b]pyridin-3-yl]-2,3-dihydro-1H-inden-1-yl]-2-(prop-2-enamidomethyl)benzamide], for which the IC50 at AKT1 E17K worked out at 0.0398 µM; in experiment [1] (Homo sapiens, LAPC4, 72 h) it was 0.68 µM; on AKT2, 0.153 µM; at AKT1 WT, 2.94 µM.

Turning to `Nc1ncccc1-c1nc2ccc(-n3cccn3)nc2n1-c1ccc2c(c1)CC[C@@H]2NC1CCN(C(=O)CCl)CC1` [Example 197, 1-(4-{[(1S)-5-[2-(2-aminopyridin-3-yl)-5-(pyrazol-1-yl)imidazo[4,5-b]pyridin-3-yl]-2,3-dihydro-1H-inden-1-yl]amino}piperidin-1-yl)-2-chloroethanone], the IC50 turned out to be 0.0189 µM on AKT1 E17K; 0.469 µM in experiment [1] (Homo sapiens, LAPC4, 72 h); 0.0286 µM on AKT2; 0.121 µM on AKT1 WT.

In the case of `C=CC(=O)N1CCCC(N[C@H]2CCc3cc(-n4c(-c5cccnc5N)nc5ccc(-n6cccn6)nc54)ccc32)CC1` (single isomer, unassigned) [Example 82, 1-((*)-4-(((S)-5-(2-(2-aminopyridin-3-yl)-5-(1H-pyrazol-1-yl)-3H-imidazo[4,5-b]pyridin-3-yl)-2,3-dihydro-1H-inden-1-yl)amino)azepan-1-yl)prop-2-en-1-one], the IC50 on AKT1 E17K was found to be 0.247 µM; in experiment [1] (72 h) it was 0.568 µM; on AKT2, 0.64 µM; on AKT1 WT, 0.0781 µM.

For the compound `C=CC(=O)N1CCC(N[C@H]2CCc3cc(-n4c(-c5cccnc5N)nc5ccc(N6CC[C@H](F)C6)nc54)ccc32)CC1` [Example 226, 1-(4-{[(1S)-5-[2-(2-aminopyridin-3-yl)-5-[(3S)-3-fluoropyrrolidin-1-yl]imidazo[4,5-b]pyridin-3-yl]-2,3-dihydro-1H-inden-1-yl]amino}piperidin-1-yl)prop-2-en-1-one], the IC50 stood at 0.0225 µM at AKT1 E17K; 0.276 µM in experiment [1] (Homo sapiens, LAPC4, 72 h); 0.0689 µM on AKT2; 0.105 µM at AKT1 WT.

As to `C=CC(=O)N1CCC(N[C@@H]2c3ccc(-n4c(-c5cccnc5N)nc5ccc(-n6cccn6)nc54)cc3C[C@H]2F)CC1` [Example 75, 1-(4-(((1R,2R)-5-(2-(2-aminopyridin-3-yl)-5-(1H-pyrazol-1-yl)-3H-imidazo[4,5-b]pyridin-3-yl)-2-fluoro-2,3-dihydro-1H-inden-1-yl)amino)piperidin-1-yl)prop-2-en-1-one], the IC50 at AKT1 E17K amounted to 0.0359 µM; in experiment [1] (Homo sapiens, LAPC4, 72 h) it was 0.287 µM; at AKT2 it was 0.511 µM; at AKT1 WT it was 0.02 µM.
